Assay results: US7396851B2, “Heterocyclic and benzoheterocyclic polyamides structurally related to the natural antibiotic distamycin A for the treatment of β-thalassaemia” (priority 2001, dated 2008)
Where a name gives a salt, the structure may show the parent alone.

Key:
mRNA for γ-globin = experiment: Expression of genes coding for γ-globins by RT-PCR / Northern blotting in K562 cells; format: cell-based, human; details: concentration 50 nM, quantitative RT-PCR, untreated control = 1
Protocol: The expression of genes coding for γ-globins was evaluated by RT-PCR (reverse transcriptase PCR) and Northern blotting (25). […] The evaluations were carried out after 6 days' induction with the indicated molecules.
The Technique used is that of quantitative RT-PCR (28, 29) using the following oligonucleotide primers and probe: γ-globin forward primer, 5′-TGGCAAGAAGGTGCTGACTTC-3′; γ-globin reverse primer, 5′-TCA CTC AGC TGG GCA AAG G-3′; probe γ-globin, 5′-FAM-TGGGAGATGCCATAAAGCACCTGG-TAMRA-3′(FAM=6-carboxy fluorescein, TAMRA=6-carboxy-N,N,N′,N′-tetramethylrhodamine).

human cell line K562 = experiment: Erythroid differentiation of K562 cells (benzidine-positive cells); format: cell-based; details: mean±SD of five independent experiments
Protocol: The activity of the distamycin analogues described previously as inducers of erythroid cell differentiation was evaluated by studying the erythroid differentiation induced in human cell cultures.
The biological activity was evaluated by examining the capacity of those compounds to induce erythroid differentiation in the human cell line K562, which is capable of undergoing erythroid differentiation by expressing the genes for γ-globin if subjected to treatment with modifiers of the biological response that are suitable for the purpose (19-24). The level of differentiation was evaluated by analysing the positive reaction of the cells to benzidine (23). Some of the data obtained are given in Table 1, which represents the results of five independent experiments (mean±SD).

Row | SMILES | erythroid differentiation (%) = percentage of K562 cells that react positively to benzidine (human cell line K562; concentration 50 nM) [%] | also measured
1 | Cl.Cn1cc(NC(=O)c2cc(NC(=O)c3cc(NC(=O)c4ccc(N(CCCl)CCCl)cc4)cn3C)cn2C)cc1C(=O)NCCC(=N)N [Compound 1, 3-(1-methyl-4-(1-methyl-4-(1-methyl-4-(4-(N,N-bis(2-chloroethyl)amino)benzenecarboxamido)pyrrole-2-carboxamido)pyrrole-2-carboxamido)pyrrole-2-carboxamido)propionamidine hydrochloride] | 65.5 ± 8.8 | mRNA for γ-globin, increase compared with untreated control K562 cells (mRNA for γ-globin): 11.5 ± 2.5
2 | CN(C)CCCNC(=O)c1cc2cc(NC(=O)c3cc4cc(NC(=O)c5ccc(N(CCCl)CCCl)cc5)ccc4[nH]3)ccc2o1 [Compound 4, N-(3′-dimethylaminopropyl)-5-(5-(4-(bis(2-chloroethyl)amino)benzoylamino)-1H-indol-2-carboxamido)benzofurane-2-carboxamido hydrochloride] |  | erythroid differentiation (%) = percentage of K562 cells that react positively to benzidine (human cell line K562; concentration 500 nM): 30 ± 3.8%
3 | Cn1cc(NC(=O)c2cc(NC(=O)c3cc(N(CC4CO4)CC4CO4)cn3C)cn2C)cc1C(=O)NCC/C(N)=N/C#N (stereo not drawn) [Compound 5, 3-(1-methyl-4-(1-methyl-4-(1-methyl-4-(N,N-bis(2-oxiranylmethyl)amino)pyrrole-2-carboxamido)pyrrole-2-carboxamido)pyrrole-2-carboxamido)cyanopropionamidine hydrochloride] | 77 ± 10.1 | 
4 | Cn1cc(NC(=O)c2cc(NC(=O)c3cc(NC(=O)c4cc5cc(N(CCCl)CCCl)ccc5o4)cn3C)cn2C)cc1C(=O)NCCC(=N)N [Compound 3, 3-(1-methyl-4-(1-methyl-4-(1-methyl-4-(5-N,N-bis(2-chloroethyl)aminobenzofurane-2-carboxamido)pyrrole-2-carboxamido)pyrrole-2-carboxamido)pyrrole-2-carboxamido)propionamidine hydrochloride] |  | erythroid differentiation (%) = percentage of K562 cells that react positively to benzidine (human cell line K562; concentration 100 nM): 72.4 ± 10.2%
5 | Cl.Cn1cc(NC(=O)c2cc(NC(=O)c3nc(NC(=O)c4ccc(N(CCCl)CCCl)cc4)cn3C)cn2C)cc1C(=O)NCCC(=N)N [Compound 2, 3-(1-methyl-4-(1-methyl-4-(1-methyl-4-(4-(N,N-bis(2-chloroethyl)amino)benzenecarboxamido)imidazole-2-carboxamido)pyrrole-2-carboxamido)pyrrole-2-carboxamido)propionamidine hydrochloride] | 85.2 ± 12.8 | 
